Data on 18 molecules can be found in PMC3443238, “Synthesis and Antiangiogenic Activity of N-Alkylated Levamisole Derivatives” (PLoS ONE, 2012).

The subject of assay [1] is human umbilical vein endothelial cells (HUVECs) in co-culture with normal human dermal fibroblasts (NHDF). Kind of assay: in vitro angiogenesis assay, HUVEC-NHDF co-culture, CD31 immunostaining. In kind it is cell-based. The conditions noted are these: for inhibition of angiogenesis compared with (S)-levamisole hydrochloride (1): Figure 5, Table 1. The protocol:
The antiangiogenic effects of the compounds were determined in a previously developed assay, designed to evaluate the growth and differentiation of human umbilical vein endothelial cells (HUVECs) in co-culture with normal human dermal fibroblasts (NHDF). […] The cluster morphology known from (S)-levamisole, was also observed for tetramisole (2) (Figure 5B and Table 1), p-bromolevamisole (3) (Figure 5C and Table 1), and N-methyllevamisoles (7a, b), with the latter mentioned showing a slightly more pronounced effect (Figure 5E and F, Figure 6 A–D, Table 1). […] Compound 4 (Figure 5D and Table 1), on the other hand, inhibited the capillary network formation to give small cords exclusively, which is reminiscent of the effect of suramin (5) (Figure 5N and Table 1), another well-known angiogenesis inhibitor [44], [51].
Co-culture cell assays were performed according to a method described previously, [44]. Briefly, 10^3 NHDFs were cultured in each well of a 96-well microtiter plate in NHDF standard medium (100 μL, FGM-2 Bullet kit) at 37°C in an atmosphere containing 5% CO2. After 3 days the medium was removed and 10^3 HUVECs were seeded onto the NHDF in TFSM2 medium (135 μL). The samples of the individual compounds were prepared by weight and dissolved in a concentration of […] in DMSO, PBS, or Milli-Q water followed by pH adjustment, and sterile filtration through 0.22 μm filters. Medium, buffer controls or test samples of 15 µL were added to each well containing the HUVEC–NHDF co-culture and were incubated for 3 days. Experiments were repeated 2–4 times with identical results.
HUVEC and fibroblasts were stained with a CD31 antibody according to the method previously described, [44]. Briefly, the cells were washed with PBS, fixed with ethanol, blocked with TTN buffer, incubated with mouse anti-human CD31 diluted 1∶250 in TTN buffer, washed in TTN buffer and incubated with alkaline phosphatase-conjugated goat anti-mouse IgG diluted 1∶1000 in TTN buffer. Bound antibody was subsequently visualised with BCIP/NBT and inspected in an Olympus IX70 microscope and photographed with an Olympus DP12 digital camera (Magnification: 40x). Image analysis was carried out using the program AnalySIS (Soft Imaging Systems, Münster, Germany).

The target of assay [2] is T1, bovine kidney tissue non-specific alkaline phosphatase (TNAP) (Bos taurus, UniProt P09487).
T1 construct: alkaline phosphatase (0.01 U/mL) from human placenta or bovine kidneys; from tissue; host or cells: bovine kidneys
T1 sequence (P09487 18-499 limits assumed): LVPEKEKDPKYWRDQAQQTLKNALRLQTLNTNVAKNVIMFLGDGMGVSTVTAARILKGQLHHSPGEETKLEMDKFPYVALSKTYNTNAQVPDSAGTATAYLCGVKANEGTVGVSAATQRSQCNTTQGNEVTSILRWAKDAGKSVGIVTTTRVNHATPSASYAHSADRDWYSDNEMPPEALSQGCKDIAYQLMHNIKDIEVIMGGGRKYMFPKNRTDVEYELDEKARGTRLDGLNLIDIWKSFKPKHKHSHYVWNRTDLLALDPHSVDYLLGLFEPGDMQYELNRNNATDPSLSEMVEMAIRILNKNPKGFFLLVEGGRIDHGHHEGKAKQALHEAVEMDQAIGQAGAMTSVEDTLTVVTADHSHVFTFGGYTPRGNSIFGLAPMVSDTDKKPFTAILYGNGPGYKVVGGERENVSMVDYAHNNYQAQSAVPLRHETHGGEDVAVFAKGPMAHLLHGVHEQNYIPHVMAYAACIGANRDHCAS
Kind of assay: Alkaline phosphatase assay (p-nitrophenyl phosphate), bovine kidney enzyme. The format is biochemical. The protocol: (§1) The levamisole derivatives were diluted to 2.5, 5 and 10 mM in DMSO. Samples (10 µL) and 90 µL solution of alkaline phosphatase (0.01 U/mL) from human placenta or bovine kidneys diluted in substrate buffer were added to a 96-well microtiter plate and incubated for 35 minutes at room temperature. Hereafter, 100 µL p-nitrophenyl phosphate (2 mg/mL) were added, and the plate was read at 405 nm with background subtraction at 650 nm on a Versamax Elisa reader (Molecular Devices, Sunnyvale, CA, USA) after 24 and 35 min. Results were obtained as the mean of double determinations. The EC50 values were read from the curve at half maximal absorbance.

Assay [3] concerns the target T2, human placenta alkaline phosphatase (HPAP) (Homo sapiens, UniProt P05187).
T2 construct: alkaline phosphatase (0.01 U/mL) from human placenta or bovine kidneys; from tissue; host or cells: human placenta
Kind of assay: Alkaline phosphatase assay (p-nitrophenyl phosphate), human placenta enzyme. The format is biochemical. The method, then: as §1

In a further assay the target is T3, sirtuin 1 (SIRT1) (Homo sapiens, UniProt Q96EB6).
T3 construct: purchased Biomol BML-AK555
T3 sequence (Q96EB6 whole entry): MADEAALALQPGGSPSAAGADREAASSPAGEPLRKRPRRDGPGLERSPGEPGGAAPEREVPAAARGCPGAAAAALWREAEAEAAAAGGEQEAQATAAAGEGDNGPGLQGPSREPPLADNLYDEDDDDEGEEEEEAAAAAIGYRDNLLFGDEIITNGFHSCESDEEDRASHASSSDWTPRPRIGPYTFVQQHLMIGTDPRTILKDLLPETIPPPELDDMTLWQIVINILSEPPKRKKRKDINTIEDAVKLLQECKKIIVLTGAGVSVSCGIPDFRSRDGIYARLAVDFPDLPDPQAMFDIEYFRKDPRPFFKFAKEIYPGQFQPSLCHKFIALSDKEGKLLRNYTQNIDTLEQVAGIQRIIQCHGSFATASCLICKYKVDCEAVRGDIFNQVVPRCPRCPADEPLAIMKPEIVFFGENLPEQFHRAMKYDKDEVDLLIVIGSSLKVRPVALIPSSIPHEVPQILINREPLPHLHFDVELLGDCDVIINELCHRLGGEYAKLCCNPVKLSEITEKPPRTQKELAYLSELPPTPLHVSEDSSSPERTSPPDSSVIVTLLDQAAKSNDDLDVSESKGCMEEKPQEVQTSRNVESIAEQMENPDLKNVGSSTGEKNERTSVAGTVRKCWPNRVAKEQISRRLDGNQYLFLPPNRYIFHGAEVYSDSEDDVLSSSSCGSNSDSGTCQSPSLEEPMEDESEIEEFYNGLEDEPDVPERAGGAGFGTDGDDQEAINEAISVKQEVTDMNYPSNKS
Nature of the assay: SIRT1 inhibition assay (Fluor-de-Lys fluorogenic). The format is biochemical. The protocol:
The assay was performed according to protocols provided by the supplier (Biomol, BML-AK555). Briefly, the dose–response experiments were performed in black low binding NUNC 96-well microtiter plates. The dilution series were prepared in Milli-Q water from 100 mM DMSO stock solutions. Fluor-de-Lys SIRT1 substrate (250 μM), NAD^+ ([…]), and SIRT1 (2 U/well) were incubated in SIRT assay buffer prepared as described in the Biomol product sheets [Tris/Cl (50 mM), NaCl (137 mM), KCl (2.7 mM), MgCl2 (1 mM), pH 8.0, 1 mg/mL bovine serum albumin] in the presence or absence of the appropriate dilution of compound 7a or suramin. After 1 hour at 37°C, nicotinamide (2 mM) and developer (50 μL, 2×) were added, and the assay development was allowed to proceed for 15–30 minutes at room temperature, before the plate was read using a Tecan plate reader with excitation at 360 nm and emission at 460 nm. Two individual assays were performed in duplicate.

Setting [4] is: 1 mM, medium control 10.2, DMSO 8.4.
Setting [5] is: concentration not given, results not shown.

Structures can show the parent of a compound that is named as a salt. Some results are limits rather than exact numbers.

T2 sequence (P05187 23-506 limits assumed): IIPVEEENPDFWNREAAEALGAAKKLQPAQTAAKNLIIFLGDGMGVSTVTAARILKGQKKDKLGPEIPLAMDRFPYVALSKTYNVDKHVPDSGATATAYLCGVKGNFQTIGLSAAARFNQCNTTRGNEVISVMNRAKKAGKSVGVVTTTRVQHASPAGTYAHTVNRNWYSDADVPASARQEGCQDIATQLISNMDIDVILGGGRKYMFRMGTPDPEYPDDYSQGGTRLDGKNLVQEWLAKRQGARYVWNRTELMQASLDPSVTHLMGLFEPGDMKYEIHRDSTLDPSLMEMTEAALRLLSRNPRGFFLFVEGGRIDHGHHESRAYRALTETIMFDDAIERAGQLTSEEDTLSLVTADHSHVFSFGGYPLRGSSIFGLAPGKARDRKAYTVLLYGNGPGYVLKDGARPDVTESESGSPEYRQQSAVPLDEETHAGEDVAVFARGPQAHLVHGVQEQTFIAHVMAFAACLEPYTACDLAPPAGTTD

`C[N+]1=C2SCCN2C[C@@H]1c1ccccc1` [Compound 7b, N-methyllevamisole trifluoroacetate]: in assay [1] (1 mM), the Grading entry is recorded as “++++ (clusters with area <4%)” and the Morphology result is “Clusters”. Moreover, in assay [1] (setting [4]), the “Area % (percent of the area covered by HUVEC as observed by CD31 staining)” value is recorded as 3.3%. Moreover, in assay [1], the “inhibition of angiogenesis compared with (S)-levamisole hydrochloride (1)” value is reported as “more potent than (S)-levamisole hydrochloride”. This molecule came in with an IC50 in assay [2] of over 2000 µM. The “inhibition of tissue non-specific alkaline phosphatase” value in assay [2] (at 2 mM or higher) is “no inhibition”. This molecule registered an IC50 in assay [3] of over 2000 µM.
Turning to `CC[N+]1=C2SCCN2C[C@@H]1c1ccccc1` [Compound 8a, N-ethyllevamisole iodide], in assay [1] (0.7 mM), the “Area % (percent of the area covered by HUVEC as observed by CD31 staining)” value came out at 5.2%, the Grading entry is on record as “+” and the Morphology entry is reported as “Mixed”. In assay [2], this molecule showed an IC50 of over 2000 µM. The same molecule gave a 50% inhibitory concentration (IC50) in assay [3] of over 2000 µM.
Regarding `CCCC[N+]1=C2SCCN2C[C@@H]1c1ccccc1` [Compound 10, (S)-N-(n-Butyl)-levamisole trifluoroacetate], in assay [1] (0.3 mM), the “Area % (percent of the area covered by HUVEC as observed by CD31 staining)” value was determined as 5.0%, the Grading result is listed as “+” and the Morphology entry is “Mixed”.
For the molecule `c1ccc(C[N+]2=C3SCCN3C[C@@H]2c2ccccc2)cc1` [Compound 11a, N-benzyllevamisole bromide], in assay [1] (0.7 mM), the “Area % (percent of the area covered by HUVEC as observed by CD31 staining)” value is reported as 2.8%, the Grading result is “+” and the Morphology result is reported as “Mixed”.
With `Cc1ccc(C(=O)Nc2ccc(S(=O)(=O)O)c3cc(S(=O)(=O)O)cc(S(=O)(=O)O)c23)cc1NC(=O)c1cccc(NC(=O)Nc2cccc(C(=O)Nc3cc(C(=O)Nc4ccc(S(=O)(=O)O)c5cc(S(=O)(=O)O)cc(S(=O)(=O)O)c45)ccc3C)c2)c1` [Compound 5, suramin, reference compound], the Morphology entry in assay [1] (1 mM) is “Cords”. Moreover, the “Area % (percent of the area covered by HUVEC as observed by CD31 staining)” value in assay [1] (setting [4]) was determined as 2.2%. Further, the IC50 in assay [2] was over 2000 µM. Also, the inhibition at 1 µM at sirtuin 1 (SIRT1) (read-out: SIRT1 inhib. (1 μM)) was over 90%. For the same molecule, the “inhibition of SIRT1 deacetylase activity” value against sirtuin 1 (SIRT1) (standard fluorogenic assay in vitro) was “potently inhibited SIRT1”.
With `Nc1ccc(-c2cn3c(n2)SCC3)cc1` [Compound 4, 4-(2,3-dihydroimidazo-[2,1-b]thiazol-6-yl)aniline, reference compound], in assay [1] (1 mM), the Grading result is listed as “+++ (cords with area <4%)” and the Morphology entry is recorded as “Cords”. Also, in assay [1] (setting [4]), the “Area % (percent of the area covered by HUVEC as observed by CD31 staining)” value is reported as 2.0%. The “inhibition of angiogenesis compared with (S)-levamisole hydrochloride (1)” value in assay [1] is listed as “more potent than (S)-levamisole hydrochloride”.
`CC[N+]1=C2SCCN2C[C@@H]1c1ccccc1` [Compound 8b, N-ethyllevamisole trifluoroacetate]: in assay [1] (0.2 mM), the “Area % (percent of the area covered by HUVEC as observed by CD31 staining)” value is 5.4%, the Grading entry is “+” and the Morphology entry is “Mixed”.
Turning to `O=S(=O)(O)CCN1CCN(CCO)CC1` [HEPES, reference compound], the “effect in the angiogenesis assay” value in assay [1] (setting [5]) is on record as “neither showed an effect”.
In the case of `OCCN(CCO)C(CO)(CO)CO` [BIS-TRIS, reference compound], in assay [1] (10 mM), the “effect in the angiogenesis assay” value was “Neither BIS-TRIS nor BICINE showed any effects”.
As for `Cn1ccnc1` [N-methylimidazole, reference compound], the results for the “effect in the angiogenesis assay” value in assay [1] (1 mM) and in assay [1] (10 mM) were “no effect” and “had an effect”, respectively.
Consider `O=C(O)CNC(CO)(CO)CO` [TRICINE, reference compound], for which the “effect in the angiogenesis assay” value in assay [1] (setting [5]) is given as “neither showed an effect”.
For the molecule `CC(C)[N+]1=C2SCCN2C[C@@H]1c1ccccc1` [Compound 9, (S)-N-Isopropyllevamisole trifluoroacetate], in assay [1] (0.6 mM), the “Area % (percent of the area covered by HUVEC as observed by CD31 staining)” value was 2.6%, the Grading entry was “+” and the Morphology result is recorded as “Mixed”. In assay [2], this molecule gave a 50% inhibitory concentration (IC50) of over 2000 µM. The molecule also had an IC50 in assay [3] of over 2000 µM.
As to `NC(CO)(CO)CO` [TRIZMA, reference compound], the “effect in the angiogenesis assay” value in assay [1] (setting [5]) is reported as “neither showed an effect”.
`c1ccc(C2CN3CCSC3=N2)cc1` (racemic) [Compound 2, (±)-levamisole, reference compound]: the Grading entry in assay [1] (1 mM) is reported as “++ (clusters with area >4%)”. The Morphology result in assay [1] (1 mM) is “Clusters”. Also, the “Area % (percent of the area covered by HUVEC as observed by CD31 staining)” value in assay [1] (setting [4]) was 8.0%. The “inhibition of angiogenesis compared with (S)-levamisole hydrochloride (1)” value in assay [1] is listed as “same effect as the enantiomerically pure parent compound”. For the same molecule, the IC50 in assay [2] was 1000 µM; in assay [3], 1200 µM.
As for `O=C(O)CN(CCO)CCO` [BICINE, reference compound], the “effect in the angiogenesis assay” value in assay [1] (10 mM) is “Neither BIS-TRIS nor BICINE showed any effects”.
For the molecule `Brc1ccc([C@H]2CN3CCSC3=N2)cc1` [Compound 3, (–)-p-bromolevamisole oxalate, reference compound], in assay [1] (1 mM), the Grading entry is listed as “++++ (clusters with area <4%)”. The Morphology entry in assay [1] (1 mM) was “Clusters”. Moreover, in assay [1] (setting [4]), the “Area % (percent of the area covered by HUVEC as observed by CD31 staining)” value was determined as 3.4%. In assay [1], the “inhibition of angiogenesis compared with (S)-levamisole hydrochloride (1)” value was “more potent than (S)-levamisole hydrochloride”. Besides, the half-maximal inhibitory concentration (IC50) is over 2000 µM in assay [2] and 700 µM in assay [3].
`c1ccc([C@H]2CN3CCSC3=[N+]2CC2CCCCC2)cc1` [Compound 12, (S)-N-Cyclohexylmethylenelevamisole]: in assay [1] (0.1 mM), the “Area % (percent of the area covered by HUVEC as observed by CD31 staining)” value turned out to be 3.7%, the Grading result is reported as “+” and the Morphology result is reported as “Mixed”. Besides, the IC50 in assay [2] is over 2000 µM. Besides, in assay [3], the half-inhibitory concentration (IC50) is over 2000 µM.
In the case of `c1ccc(C[N+]2=C3SCCN3C[C@@H]2c2ccccc2)cc1` [Compound 11b, N-benzyllevamisole trifluoroacetate], in assay [1] (0.4 mM), the “Area % (percent of the area covered by HUVEC as observed by CD31 staining)” value is listed as 4.0%, the Grading entry is recorded as “+” and the Morphology result is given as “Mixed”. The molecule also yielded an IC50 in assay [2] of over 2000 µM. This molecule also had an IC50 in assay [3] of over 2000 µM.

By IC50 is commonly meant the concentration needed to halve the response being measured. Low values mean inhibition by little substance, high ones a need for much substance.
